The test system of the assay is T1, Pleurotus ostreatus NRC 620 laccase.
T1 construct: gene pox2
The note with it: pH 4.5; ABTS 0.025-3 mM; crude culture supernatant.

`CCn1c(=NN=c2sc3cc(S(=O)(=O)O)ccc3n2CC)sc2cc(S(=O)(=O)O)ccc21` [ABTS, 2, 2´-azino-bis (3-ethylbenzothiazoline-6-sulphonic acid)]: the Km is 1.99 mM.

The record behind these values is PMC12181291, “Production and biochemical characterization of Pleurotus ostreatus NRC 620 laccase and evaluation of its efficacy in apple juice clarification” (Scientific Reports, 2025).
